“Also recorded” adds a separate entry of the source.
Experiments:
interleukin-1β = conditions: cited from earlier work
[1] = system: other members of the interleukin-1 family, including interleukin-1 alpha; conditions: cited from earlier work
[2] = system: mouse models of acute gout; conditions: in vivo; cited from earlier work
[3] = system: human bone mesenchymal stem cells; assay: induction of Carcinoma Associated Fibroblasts phenotype in human bone mesenchymal stem cells by IL1β or PC3-ML conditioned medium; assay type: cell-based; conditions: hMSCs exposed to IL1β or conditioned medium from PC3-ML cells
Experimental: DU-145, 22Rv1. LNCaP, and VCaP human prostate cancer cell lines were purchased from ATCC: the PC3-ML cell line was derived from the parental PC-3 cell line as described in Wang M, Stearns M E, Isolation and characterization of PC-3 human prostatic tumor sublines which preferentially metastasize to select organs in S.C.I.D. mice. Differentiation. 1991; 48:115-25. All cell lines were authenticated by short tandem repeat profiling by IDEXX Radil and/or DDC Medical. Cells were cultured in Dulbecco's Modified Eagle Medium (DU-145, VCaP, and PC3-ML) or RPMI-1460 (22Rv1 and LNCaP) containing 10% fetal bovine serum and 0.1% gentamicin. Bone marrow-derived Human Mesenchymal Stem cells (Lonza) were used between passage 5 and 8 and cultured in α-MEM supplemented with 10% FBS, 1 ng/ml bFGF (R&D), and 0.1% gentamicin. Each cell line was cultured at 37° C. and 5% CO2 and discarded 10 passages following thawing. […]
Cell lysates were obtained and Western Blotting analysis was performed as previously described. […] Chemiluminescent signals were obtained using SuperSignal West Femto substrate (Pierce) and detected with the Fluorochem 8900 imaging system and related software. […]

[4] = system: AR(−)/IL1β(+) human prostate cancer cells; assay: skeletal metastasis model: human prostate cancer cells inoculated via the left cardiac ventricle of mice; assay type: in vivo, mouse; conditions: subcutaneous anakinra from 24 hours before inoculation, then daily, FIGS. 3A-3B
Experimental: Male C.B17-SC mice (Taconic) at six to eight weeks of age were anesthetized with ketamine (80 mg/kg) and xylazine (10 mg/kg) prior being inoculated with cancer cells via the left cardiac ventricle. For anakinra treatment, animals received an initial subcutaneous dose of vehicle (PBS) or anakinra (Swedish Orphan Biovitrum) 24 hours prior to cancer cell inoculation, then additional doses at the time of xenograft and daily thereafter until sacrifice.
Prior to each weekly imaging session, animals were injected IP with 150 mg/kg D-Luciferin (PerkinElmer) and allowed to rest for ten minutes, then anesthetized using 3% isoflurane and transferred to the chamber of an IVIS Lumina XR (PerkinElmer), where they received 2% isoflurane throughout image acquisition. […]
Fluorescent images of skeletal metastases were collected as described in Liu et al., 2013, Cancer Res. 73:3297-305. In experiments assessing arrival/colonization of the bone, animals were sacrificed and femora and tibia were imaged and processed using Nuance software and a standardized spectral library and total GFP-positive DTCs counted in the knee joint of each animal. Lung tissues from the same animals were sectioned at 80 μm at intervals across the organ and images of five random fields analyzed as described. […]

CSc1ccc(-c2nn(Cc3ccccc3)c(=O)cc2-c2ccc(Cl)cc2)cc1 [K-832, 2-benzyl-5-(4-chlorophenyl)-6-[4-(methylthio)phenyl]-2H-pyridazin-3-one]
inhibitory activity against production of interleukin-1β (interleukin-1β): high inhibitory activity

Canakinumab: a human monoclonal antibody targeted at interleukin-1 beta
cross-reactivity with other members of the interleukin-1 family [1]: no cross-reactivity

XOMA-052: a potent anti-IL1β humanized neutralizing antibody
activity in mouse models of acute gout [2]: active

anakinra: recombinant, non-glycosylated version of human IL1 receptor antagonist prepared from cultures of genetically modified E. coli
morphological changes in alpha smooth muscle actin (CAF phenotype) ([3]; FIG. 4A): inhibited
expression of the S100 A4 marker (CAF phenotype) ([3]; FIG. 4B): inhibited
progression at the skeletal level of human prostate cancer cells (bone metastatic tumor burden) [4]: significantly impaired; also recorded: much less prone to skeletal colonization

Reference: US10517933B2, “Method of treating androgen receptor negative prostate tumors and their metastases” (DREXEL UNIVERSITY, priority 2015, dated 2019)
